Test results published in ChEMBL document CHEMBL4649997, “Data for probe TP-472” (2021).

Assays:
[1] = target: ATPase family AAA domain-containing protein 2B (Homo sapiens) (UniProt Q9ULI0); details: Compound concentration 10.0 uM, Protein concentration 2.0 uM
[2] = target: Bromodomain-containing protein 4 (Homo sapiens) (UniProt O60885); details: Compound concentration 10.0 uM, Protein concentration 2.0 uM
[3] = target: Tyrosine-protein kinase BAZ1B (Homo sapiens) (UniProt Q9UIG0); details: Compound concentration 10.0 uM, Protein concentration 2.0 uM
[4] = target: Bromodomain-containing protein 9 (Homo sapiens) (UniProt Q9H8M2); details: Compound concentration 10.0 uM, Protein concentration 2.0 uM
[5] = target: Histone-lysine N-methyltransferase 2A (Homo sapiens) (UniProt Q03164); details: Compound concentration 10.0 uM, Protein concentration 2.0 uM
[6] = target: Protein polybromo-1 (Homo sapiens) (UniProt Q86U86); details: Compound concentration 10.0 uM, Protein concentration 2.0 uM
[7] = target: Histone-lysine N-methyltransferase ASH1L (Homo sapiens) (UniProt Q9NR48); details: Compound concentration 10.0 uM, Protein concentration 2.0 uM
[8] = target: Nucleosome-remodeling factor subunit BPTF (Homo sapiens) (UniProt Q12830); details: Compound concentration 10.0 uM, Protein concentration 2.0 uM
[9] = target: SWI/SNF-related matrix-associated actin-dependent regulator of chromatin subfamily A member 4 (Homo sapiens) (UniProt P51532); details: Compound concentration 10.0 uM, Protein concentration 2.0 uM
[10] = target: Transcription initiation factor TFIID subunit 1-like (Homo sapiens) (UniProt Q8IZX4); details: Compound concentration 10.0 uM, Protein concentration 2.0 uM
[11] = target: T1, Chromatin remodeling regulator CECR2 (Homo sapiens, UniProt Q9BXF3); assay: Alphascreen assay. Binding to CECR2A (domain start/stop: P420-D543) by alphascreen assay
[12] = target: Bromodomain-containing protein 3 (Homo sapiens) (UniProt Q15059); details: Compound concentration 10.0 uM, Protein concentration 2.0 uM
[13] = target: Histone acetyltransferase p300 (Homo sapiens) (UniProt Q09472); details: Compound concentration 10.0 uM, Protein concentration 2.0 uM
[14] = target: Bromodomain-containing protein 2 (Homo sapiens) (UniProt P25440); details: Compound concentration 10.0 uM, Protein concentration 2.0 uM
[15] = target: Transcription initiation factor TFIID subunit 1 (Homo sapiens) (UniProt P21675); details: Compound concentration 10.0 uM, Protein concentration 2.0 uM
[16] = target: Bromodomain and WD repeat-containing protein 3 (Homo sapiens) (UniProt Q6RI45); details: Compound concentration 10.0 uM, Protein concentration 2.0 uM
[17] = target: Transcription initiation factor TFIID subunit 1 (Homo sapiens) (UniProt P21675); details: Compound concentration 10.0 uM, Protein concentration 2.0 uM; remark: listed apart in the source
[18] = target: Bromodomain-containing protein 3 (Homo sapiens) (UniProt Q15059); details: Compound concentration 10.0 uM, Protein concentration 2.0 uM; remark: listed apart in the source
[19] = target: Bromodomain testis-specific protein (Homo sapiens) (UniProt Q58F21); details: Compound concentration 10.0 uM, Protein concentration 2.0 uM
[20] = target: Bromodomain adjacent to zinc finger domain protein 2B (Homo sapiens) (UniProt Q9UIF8); details: Compound concentration 10.0 uM, Protein concentration 2.0 uM
CREB-binding protein [21] = target: T2, CREB-binding protein (Homo sapiens, UniProt Q92793); assay: Alphascreen assay. Binding to CREBBPA (domain start/stop: R1081-G1197) by alphascreen assay
Peregrin (Homo sapiens) [22] = target: Peregrin (Homo sapiens) (UniProt P55201); details: Compound concentration 10.0 uM, Protein concentration 2.0 uM
[23] = target: Histone acetyltransferase KAT2B (Homo sapiens) (UniProt Q92831); details: Compound concentration 10.0 uM, Protein concentration 2.0 uM
[24] = target: Bromodomain testis-specific protein (Homo sapiens) (UniProt Q58F21); details: Compound concentration 10.0 uM, Protein concentration 2.0 uM; remark: listed apart in the source
[25] = target: Protein polybromo-1 (Homo sapiens) (UniProt Q86U86); details: Compound concentration 10.0 uM, Protein concentration 2.0 uM; remark: listed apart in the source
[26] = target: Nuclear body protein SP140 (Homo sapiens) (UniProt Q13342); details: Compound concentration 10.0 uM, Protein concentration 2.0 uM
[27] = target: Histone acetyltransferase KAT2A (Homo sapiens) (UniProt Q92830); details: Compound concentration 10.0 uM, Protein concentration 2.0 uM
[28] = target: Transcription intermediary factor 1-beta (Homo sapiens) (UniProt Q13263); details: Compound concentration 10.0 uM, Protein concentration 2.0 uM
[29] = target: Protein polybromo-1 (Homo sapiens) (UniProt Q86U86); details: Compound concentration 10.0 uM, Protein concentration 2.0 uM; remark: listed apart in the source
[30] = target: Protein polybromo-1 (Homo sapiens) (UniProt Q86U86); details: Compound concentration 10.0 uM, Protein concentration 2.0 uM; remark: listed apart in the source
[31] = target: Protein polybromo-1 (Homo sapiens) (UniProt Q86U86); details: Compound concentration 10.0 uM, Protein concentration 2.0 uM; remark: listed apart in the source
Peregrin = Peregrin (Homo sapiens, UniProt P55201); assay: Alphascreen assay. Binding to BRPF1B (domain start/stop: M626-G740) by alphascreen assay
[32] = target: Bromodomain adjacent to zinc finger domain protein 1A (Homo sapiens) (UniProt Q9NRL2); details: Compound concentration 10.0 uM, Protein concentration 2.0 uM
[33] = target: ATPase family AAA domain-containing protein 2 (Homo sapiens) (UniProt Q6PL18); details: Compound concentration 10.0 uM, Protein concentration 2.0 uM
[34] = target: Bromodomain-containing protein 1 (Homo sapiens) (UniProt O95696); details: Compound concentration 10.0 uM, Protein concentration 2.0 uM
[35] = target: Bromodomain and PHD finger-containing protein 3 (Homo sapiens) (UniProt Q9ULD4); details: Compound concentration 10.0 uM, Protein concentration 2.0 uM
[36] = target: Transcription intermediary factor 1-alpha (Homo sapiens) (UniProt O15164); details: Compound concentration 10.0 uM, Protein concentration 2.0 uM
[37] = target: Bromodomain adjacent to zinc finger domain protein 2A (Homo sapiens) (UniProt Q9UIF9); details: Compound concentration 10.0 uM, Protein concentration 2.0 uM
[38] = target: Protein polybromo-1 (Homo sapiens) (UniProt Q86U86); details: Compound concentration 10.0 uM, Protein concentration 2.0 uM; remark: listed apart in the source
[39] = target: Bromodomain and WD repeat-containing protein 1 (Homo sapiens) (UniProt Q9NSI6); details: Compound concentration 10.0 uM, Protein concentration 2.0 uM
[40] = target: SWI/SNF-related matrix-associated actin-dependent regulator of chromatin subfamily A member 2 (Homo sapiens) (UniProt P51531); details: Compound concentration 10.0 uM, Protein concentration 2.0 uM
Peregrin (Homo sapiens) [41] = target: Peregrin (Homo sapiens) (UniProt P55201); details: Compound concentration 10.0 uM, Protein concentration 2.0 uM; remark: listed apart in the source
[42] = target: PH-interacting protein (Homo sapiens) (UniProt Q8WWQ0); details: Compound concentration 10.0 uM, Protein concentration 2.0 uM
[43] = target: Nuclear body protein SP140-like protein (Homo sapiens) (UniProt Q9H930); details: Compound concentration 10.0 uM, Protein concentration 2.0 uM
[44] = target: Bromodomain-containing protein 7 (Homo sapiens) (UniProt Q9NPI1); details: Compound concentration 10.0 uM, Protein concentration 2.0 uM
[45] = target: T1, Chromatin remodeling regulator CECR2; details: Compound concentration 10.0 uM, Protein concentration 2.0 uM
[46] = target: T1, Chromatin remodeling regulator CECR2; assay: Alphascreen assay. Binding to CECR2A (domain start/stop: P420-H538) by alphascreen assay
CREB-binding protein [47] = target: T2, CREB-binding protein; details: Compound concentration 10.0 uM, Protein concentration 2.0 uM
[48] = target: Transcription initiation factor TFIID subunit 1-like (Homo sapiens) (UniProt Q8IZX4); details: Compound concentration 10.0 uM, Protein concentration 2.0 uM; remark: listed apart in the source
[49] = target: Bromodomain-containing protein 2 (Homo sapiens) (UniProt P25440); details: Compound concentration 10.0 uM, Protein concentration 2.0 uM; remark: listed apart in the source

Chain of Protein polybromo-1 (Homo sapiens) (Q86U86 whole entry): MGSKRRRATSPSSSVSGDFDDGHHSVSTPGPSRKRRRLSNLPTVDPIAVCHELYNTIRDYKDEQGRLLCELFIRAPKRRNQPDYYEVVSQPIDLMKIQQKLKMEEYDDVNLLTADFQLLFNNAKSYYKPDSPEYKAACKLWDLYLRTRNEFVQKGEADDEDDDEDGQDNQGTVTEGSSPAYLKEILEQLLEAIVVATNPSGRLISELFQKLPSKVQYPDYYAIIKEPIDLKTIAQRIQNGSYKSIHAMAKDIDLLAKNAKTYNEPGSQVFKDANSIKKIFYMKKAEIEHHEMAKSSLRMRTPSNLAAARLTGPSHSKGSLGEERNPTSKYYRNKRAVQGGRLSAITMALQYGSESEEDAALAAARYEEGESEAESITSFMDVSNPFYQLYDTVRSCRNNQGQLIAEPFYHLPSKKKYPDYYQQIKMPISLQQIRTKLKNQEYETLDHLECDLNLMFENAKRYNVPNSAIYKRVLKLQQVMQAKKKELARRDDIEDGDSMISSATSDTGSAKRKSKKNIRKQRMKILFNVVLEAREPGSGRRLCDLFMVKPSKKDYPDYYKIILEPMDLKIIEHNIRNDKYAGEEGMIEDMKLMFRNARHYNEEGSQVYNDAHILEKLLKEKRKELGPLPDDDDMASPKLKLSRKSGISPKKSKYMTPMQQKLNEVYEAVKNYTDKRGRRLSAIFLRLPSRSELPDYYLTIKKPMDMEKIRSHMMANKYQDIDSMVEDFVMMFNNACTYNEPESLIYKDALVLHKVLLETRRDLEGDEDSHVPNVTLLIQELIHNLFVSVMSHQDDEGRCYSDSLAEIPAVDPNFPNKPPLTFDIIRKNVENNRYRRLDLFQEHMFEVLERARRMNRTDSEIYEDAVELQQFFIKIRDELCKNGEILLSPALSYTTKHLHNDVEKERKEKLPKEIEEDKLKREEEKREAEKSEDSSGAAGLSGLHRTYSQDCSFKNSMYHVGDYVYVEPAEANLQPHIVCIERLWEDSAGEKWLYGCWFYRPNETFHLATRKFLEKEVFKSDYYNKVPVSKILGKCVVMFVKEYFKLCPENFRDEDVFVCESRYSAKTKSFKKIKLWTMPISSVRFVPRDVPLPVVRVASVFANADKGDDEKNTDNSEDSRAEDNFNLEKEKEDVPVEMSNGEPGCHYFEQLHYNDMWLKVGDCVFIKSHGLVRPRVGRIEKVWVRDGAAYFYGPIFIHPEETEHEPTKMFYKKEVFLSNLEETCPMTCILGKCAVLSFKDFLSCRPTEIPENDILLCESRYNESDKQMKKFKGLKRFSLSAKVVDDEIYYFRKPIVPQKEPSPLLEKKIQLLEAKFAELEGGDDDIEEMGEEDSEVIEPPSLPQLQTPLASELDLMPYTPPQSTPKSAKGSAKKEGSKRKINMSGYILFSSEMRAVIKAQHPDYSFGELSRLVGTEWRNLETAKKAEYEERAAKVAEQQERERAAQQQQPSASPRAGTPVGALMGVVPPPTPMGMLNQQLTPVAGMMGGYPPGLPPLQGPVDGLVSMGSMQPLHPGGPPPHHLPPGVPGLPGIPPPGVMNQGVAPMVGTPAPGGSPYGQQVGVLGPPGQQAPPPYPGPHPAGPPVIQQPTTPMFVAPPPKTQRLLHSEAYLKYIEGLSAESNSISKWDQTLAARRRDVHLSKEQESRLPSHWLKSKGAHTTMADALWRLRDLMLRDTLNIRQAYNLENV
Chain of Bromodomain-containing protein 3 (Homo sapiens) (Q15059 2-726 limits assumed): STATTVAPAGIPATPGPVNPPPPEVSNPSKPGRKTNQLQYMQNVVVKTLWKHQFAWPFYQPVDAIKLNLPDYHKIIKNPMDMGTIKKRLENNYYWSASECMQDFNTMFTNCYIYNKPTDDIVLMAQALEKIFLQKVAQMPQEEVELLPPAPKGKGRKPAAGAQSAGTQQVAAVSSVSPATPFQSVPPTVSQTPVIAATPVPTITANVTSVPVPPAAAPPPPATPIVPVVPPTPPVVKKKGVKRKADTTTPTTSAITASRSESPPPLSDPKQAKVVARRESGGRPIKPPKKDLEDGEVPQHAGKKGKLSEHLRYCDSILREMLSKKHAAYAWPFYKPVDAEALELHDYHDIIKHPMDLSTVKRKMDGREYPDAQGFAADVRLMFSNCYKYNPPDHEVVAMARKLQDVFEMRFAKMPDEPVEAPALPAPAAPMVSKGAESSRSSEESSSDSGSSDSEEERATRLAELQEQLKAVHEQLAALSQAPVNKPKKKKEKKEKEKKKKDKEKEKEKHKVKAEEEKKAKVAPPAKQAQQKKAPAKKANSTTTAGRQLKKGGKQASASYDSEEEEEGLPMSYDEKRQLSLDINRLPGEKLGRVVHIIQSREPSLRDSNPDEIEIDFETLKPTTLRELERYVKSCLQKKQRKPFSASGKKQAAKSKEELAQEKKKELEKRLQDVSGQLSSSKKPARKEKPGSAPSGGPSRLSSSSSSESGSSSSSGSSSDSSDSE
Chain of Transcription initiation factor TFIID subunit 1-like (Homo sapiens) (Q8IZX4 whole entry): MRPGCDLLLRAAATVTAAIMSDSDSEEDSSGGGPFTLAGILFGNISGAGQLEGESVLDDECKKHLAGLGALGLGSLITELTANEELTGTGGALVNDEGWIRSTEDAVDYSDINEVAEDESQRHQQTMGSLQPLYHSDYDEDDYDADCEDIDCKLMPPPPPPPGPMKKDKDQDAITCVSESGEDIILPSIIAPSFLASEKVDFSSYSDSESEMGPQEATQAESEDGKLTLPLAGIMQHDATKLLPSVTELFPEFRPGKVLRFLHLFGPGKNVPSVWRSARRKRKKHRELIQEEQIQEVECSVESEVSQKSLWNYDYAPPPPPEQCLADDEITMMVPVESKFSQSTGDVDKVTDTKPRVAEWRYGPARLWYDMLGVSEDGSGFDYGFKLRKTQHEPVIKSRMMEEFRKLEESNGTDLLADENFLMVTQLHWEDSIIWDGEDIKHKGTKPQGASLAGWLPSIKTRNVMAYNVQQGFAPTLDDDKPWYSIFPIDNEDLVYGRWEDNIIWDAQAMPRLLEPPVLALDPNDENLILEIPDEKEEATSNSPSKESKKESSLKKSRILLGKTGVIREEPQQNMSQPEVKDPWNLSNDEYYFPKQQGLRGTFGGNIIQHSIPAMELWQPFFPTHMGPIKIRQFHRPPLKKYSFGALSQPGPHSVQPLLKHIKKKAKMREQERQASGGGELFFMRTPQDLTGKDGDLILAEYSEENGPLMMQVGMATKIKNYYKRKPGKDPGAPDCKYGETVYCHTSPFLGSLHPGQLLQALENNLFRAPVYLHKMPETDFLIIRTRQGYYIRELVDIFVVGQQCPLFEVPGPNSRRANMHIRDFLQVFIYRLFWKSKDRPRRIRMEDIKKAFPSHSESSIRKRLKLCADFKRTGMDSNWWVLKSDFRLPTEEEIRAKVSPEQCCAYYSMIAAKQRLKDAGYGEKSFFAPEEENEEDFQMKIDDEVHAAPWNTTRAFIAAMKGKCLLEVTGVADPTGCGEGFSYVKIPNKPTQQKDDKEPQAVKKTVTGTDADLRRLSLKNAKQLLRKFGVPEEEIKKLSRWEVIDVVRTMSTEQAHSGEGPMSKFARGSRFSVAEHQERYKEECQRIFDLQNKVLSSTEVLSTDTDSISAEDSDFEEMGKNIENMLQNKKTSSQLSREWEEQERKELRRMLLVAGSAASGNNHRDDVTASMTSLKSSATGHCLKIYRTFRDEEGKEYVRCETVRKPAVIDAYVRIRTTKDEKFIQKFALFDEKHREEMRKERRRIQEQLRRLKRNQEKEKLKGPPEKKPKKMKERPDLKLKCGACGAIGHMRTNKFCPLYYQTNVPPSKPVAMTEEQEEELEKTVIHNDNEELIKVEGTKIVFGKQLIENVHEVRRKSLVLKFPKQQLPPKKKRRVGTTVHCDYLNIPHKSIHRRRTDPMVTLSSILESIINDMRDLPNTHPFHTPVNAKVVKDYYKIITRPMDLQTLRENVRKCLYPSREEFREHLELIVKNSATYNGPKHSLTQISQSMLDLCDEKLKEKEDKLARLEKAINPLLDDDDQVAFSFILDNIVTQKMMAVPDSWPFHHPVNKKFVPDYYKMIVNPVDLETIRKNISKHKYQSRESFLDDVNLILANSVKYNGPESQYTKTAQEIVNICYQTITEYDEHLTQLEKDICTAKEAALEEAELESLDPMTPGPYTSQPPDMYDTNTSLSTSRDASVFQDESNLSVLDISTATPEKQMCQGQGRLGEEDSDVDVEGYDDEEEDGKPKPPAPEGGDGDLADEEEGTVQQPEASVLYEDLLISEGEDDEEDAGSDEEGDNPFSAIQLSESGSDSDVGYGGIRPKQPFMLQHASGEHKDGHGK
Chain of Bromodomain-containing protein 2 (Homo sapiens) (P25440 whole entry, looked up): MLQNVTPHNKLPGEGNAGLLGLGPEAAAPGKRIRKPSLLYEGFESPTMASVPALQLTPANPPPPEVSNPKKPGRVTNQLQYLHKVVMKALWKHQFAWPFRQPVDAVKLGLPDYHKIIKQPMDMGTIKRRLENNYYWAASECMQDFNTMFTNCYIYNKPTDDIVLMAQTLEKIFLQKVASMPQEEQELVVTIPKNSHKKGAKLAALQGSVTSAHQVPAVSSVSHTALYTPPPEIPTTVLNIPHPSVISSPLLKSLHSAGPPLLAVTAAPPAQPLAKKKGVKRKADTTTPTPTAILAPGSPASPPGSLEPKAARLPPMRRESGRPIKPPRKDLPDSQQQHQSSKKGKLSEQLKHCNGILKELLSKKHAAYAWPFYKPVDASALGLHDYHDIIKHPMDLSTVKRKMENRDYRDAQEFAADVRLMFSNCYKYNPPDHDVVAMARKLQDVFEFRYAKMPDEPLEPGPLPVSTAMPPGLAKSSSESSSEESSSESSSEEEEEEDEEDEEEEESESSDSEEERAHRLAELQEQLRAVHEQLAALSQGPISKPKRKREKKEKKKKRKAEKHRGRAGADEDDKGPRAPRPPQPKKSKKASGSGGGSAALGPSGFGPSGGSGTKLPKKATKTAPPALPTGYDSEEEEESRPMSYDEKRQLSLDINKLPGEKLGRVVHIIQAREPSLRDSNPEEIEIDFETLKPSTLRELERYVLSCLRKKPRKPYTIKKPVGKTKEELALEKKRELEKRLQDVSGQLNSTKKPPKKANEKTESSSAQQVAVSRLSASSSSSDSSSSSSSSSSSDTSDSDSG

`CC(=O)c1cc(-c2cc(C(=O)NC3CC3)ccc2C)c2ncccn12` was tested, and the ΔTm [1] was 0.11 °C, the ΔTm [2] was 1.78 °C and the ΔTm [3] was 0.68 °C. For the same molecule, the ΔTm [4] was 9.32 °C, the ΔTm [5] was 0.02 °C and the ΔTm [6] was 0.19 °C. For the same molecule, the ΔTm [7] was 0.38 °C, the ΔTm [8] was -0.04 °C and the ΔTm [9] was 0.08 °C. For the same molecule, the ΔTm [10] was 1.64 °C, the IC50 [11] was 2430 nM and the ΔTm [12] was 0.91 °C. It also gave a ΔTm [13] of 3.55 °C, a ΔTm [14] of 1.14 °C and a ΔTm [15] of 1.04 °C. It also gave a ΔTm [16] of 1.67 °C, a ΔTm [17] of 0.25 °C and a ΔTm [18] of 1.01 °C. For the same molecule, the ΔTm [19] was 0.83 °C, the ΔTm [20] was 1.04 °C and the IC50 (CREB-binding protein [21]) was 3440 nM. For the same molecule, the ΔTm (Peregrin (Homo sapiens) [22]) was 0.67 °C, the ΔTm [23] was 0.7 °C and the ΔTm [24] was 0.61 °C. For the same molecule, the ΔTm [25] was -0.01 °C, the ΔTm [26] was 0.3 °C and the ΔTm [27] was 0.61 °C. The ΔTm [28] was -0.06 °C, the ΔTm [29] was -0.13 °C and the ΔTm [30] was 0.08 °C. For the same molecule, the ΔTm [31] was 0.08 °C, the IC50 (Peregrin) was 2230 nM and the ΔTm [32] was 1.19 °C. For the same molecule, the ΔTm [33] was 0.18 °C, the ΔTm [34] was 0.25 °C and the ΔTm [35] was 0.4 °C. For the same molecule, the ΔTm [36] was 1.33 °C, the ΔTm [37] was 1.02 °C and the ΔTm [38] was -0.26 °C. The ΔTm [39] was 0.79 °C, the ΔTm [40] was 0.13 °C and the ΔTm (Peregrin (Homo sapiens) [41]) was 0.29 °C. For the same molecule, the ΔTm [42] was 0.41 °C, the ΔTm [43] was 0.95 °C and the ΔTm [44] was 6.98 °C. For the same molecule, the ΔTm [45] was 3.76 °C, the IC50 [46] was 2390 nM and the ΔTm (CREB-binding protein [47]) was 2.98 °C. For the same molecule, the ΔTm [48] was 0.18 °C and the ΔTm [49] was 0.84 °C.
